{
  "source": "patent US5786332A",
  "about": "“Cytokine restraining agents and methods of use in pathologies and conditions associated with altered cytokine levels” (Trega Biosciences, Inc., priority 1995, dated 1998)",
  "format_in_all_cases": "in vivo",
  "key": {"[1]": {"tested_on": "TNF-α", "assay": "Reduction of LPS-induced TNF levels in mice (IP dosing, ELISA)", "details": "30 μg/mouse IP; LPS 5 mg/kg IP; vs untreated control mice", "experimental": "Balb/c female mice weighing approximately 20 g were placed into two groups, a control group and a treated group. Five mg/kg of LPS in 0.9% saline was administered by intraperitoneal (IP) injection into the control mice. Mice in the treated group were first injected IP with 30 μg EX-2 or 150 μg EX-3 in saline, then, one mn after EX-2 or EX-3 was administered, the mice received LPS as described for the control group.\nBlood samples were collected from the orbital sinus of treated and control mice at various times up to four hr after LPS was administered. The plasma was separated by centrifugation at 3000×g for 5 min, then diluted with four volumes of 1× phosphate buffer saline (pH 7.4) containing 1% bovine serum albumin. A 100 μl sample of serum was assayed by ELISA for TNF-α (Genzyme; Cambridge Mass.).\nThe mean (+/-SEM) TNF-α level in six mice from each group was determined and the percent reduction in TNF levels was calculated."}, "[2]": {"tested_on": "Sprague-Dawley rats", "assay": "Nephrotoxic serum glomerulonephritis, albuminuria", "details": "EX-2 100 μg/kg per injection 3 times per day; 24 hr albumin excretion", "experimental": "C. Glomerulonephritis: Male Sprague-Dawley rats (weight 194-248 g) were immunized by subcutaneous injection of 1 mg normal rabbit IgG (Sigma Chemical Co.) in Freund's complete adjuvant (Sigma Chemical Co.). EX-2 was administered 3 times per day (100 μg/kg per injection) throughout the duration of the experiment. Seven days later, the rats were injected with 1.5 ml of nephrotoxic serum iv via dorsal penile vein. Urine, plasma, and serum were collected before injection of nephrotoxic serum at 4, 6, 24, 48, and 96 hr thereafter. […] Albuminuria was quantified by immunoelectrophoresis."}, "[3]": {"tested_on": "Wistar rats", "assay": "LPS-induced temperature increase (fever)", "details": "6 hr following LPS", "experimental": "Male Wistar rats (45-75 days old) were placed in a temperature controlled room held at 26° C., which is thermoneutral for the normal body temperature of rats, and were maintained in the room with free access to food and water for 24 hr prior to testing. On the morning of the study, rats were marked for identification and weighed. The temperature of each rat was determined by placing the animal in a restraining cage designed to minimize stress and inserting a temperature probe (YSI probe #402) 3-5 cm into the animal's rectum. The temperature was recorded 15 sec after the reading stabilized. Measurements were repeated 1 hr later to establish a baseline temperature for each rat.\nAfter the baseline temperatures were established, rats were injected IP with saline, IL-1β or LPS endotoxin.\nRats then were injected IP with either saline (control) or various concentrations of EX-2, EX-3, or EX-4 (treated). The temperature of the rats was measured every hr for 6 hr and the inhibition by EX-2, EX-3, or EX-4 of the rise in temperature due to IL-1β or LPS was determined.\nIn addition, treatment with 50 or 150 μg/kg EX-2 inhibited LPS-induced fever by 45% or 52%, respectively, when measured 6 hr following LPS injection. Furthermore, treatment with 150 μg/kg EX-3 or EX-4 inhibited LPS-induced fever by 57% and 52%, respectively (Table II)."}, "[4]": {"tested_on": "IL-6", "assay": "Reduction of LPS-induced Interleukin-6 levels in mice (ELISA)", "details": "300 μg/mouse; LPS-treated mice vs untreated control", "experimental": "Balb/c mice were grouped and treated as described in Example III, above. Blood samples were obtained from the orbital sinus at various times up to six hr and serum was collected and diluted as described above. A 100 μl aliquot was assayed for IL-6 levels using an IL-6-specific ELISA by a modification of the method of Starnes et al., J. Immunol. 145:4185-4194 (1990), which is incorporated herein by reference.\nThe mean (+/-SEM) IL-6 level in six mice from each group was determined and the percent reduction in IL-6 was calculated."}, "[5]": {"tested_on": "Balb/c mice", "assay": "Lipopolysaccharide-induced lethality (IP dosing)", "details": "11 × 300 μg/mouse IP (3.3 mg total); 0.6 mg LPS", "experimental": "These experiments were performed based on information reported by Rivier et al., Endocrinology 125:2800-2805 (1989), which is incorporated herein by reference. Adult female Balb/c mice were provided food and water ad libitum. Mice were injected IP every four hr for 40 hr with 30 to 300 μg EX-2, EX-3 or EX-4 in 0.2 ml saline (treated group) or with 0.2 ml saline, alone (control group) (10 mice per group). Immediately following the first injection, 0.6 mg LPS endotoxin in 0.2 ml saline was administered to each mouse. Following LPS injection, EX-2 or saline was administered to the treated mice or the control mice, respectively, every 4 hr for 36 hr."}},
  "data": [
    {"substance": "Ac-Nle-Gln-His-(D)Phe-Arg-(D)Trp-Gly-NH2 [EX-2]", "values": [
      {"measurement": "Reduction in TNF levels", "setting": "[1]", "result": 50, "unit": "%"},
      {"measurement": "% Reduction of induced increase in Albumin (mg/day), Glomerulonephritis", "setting": "[2]", "result": 62, "unit": "%"},
      {"measurement": "Reduction in LPS-induced Fever", "setting": "[3]; 50 μg/kg IP", "result": 45, "unit": "%"},
      {"measurement": "Reduction in LPS-induced Fever", "setting": "[3]; 150 μg/kg IP", "result": 52, "unit": "%"},
      {"measurement": "Reduction in IL-6 levels", "setting": "[4]", "result": 60, "unit": "%"},
      {"measurement": "Inhibition of LPS-induced Lethality (increase in survival vs control)", "setting": "[5]", "result": 83, "unit": "%"}
    ]}
  ]
}
